Experimental data reported in US4871716A, “Magnetically responsive, hydrophilic microspheres for incorporation of therapeutic substances and methods of preparation thereof” (priority 1986, dated 1989).

Legend:
[1] = Toxicity in CD-1 mice by i.p. injection; type: in vivo, CD-1 white female mice; conditions: mouse, in vivo, ip, 0.6 mg; 600 μg free AD; read-out: animals killed
Procedure: (§1) CD-1 white female mice, 5-7 weeks of age, weighing 30-33 g were injected by the intraperitoneal (i.p.) route with AD at concentrations of 0.6 mg and 1.5 mg dissolved in 0.5 ml of sterile saline. A second group of animals were injected with AD-PGA(15%)-HSA/MS-Q with 0.6, 1.5, and 2.5 mg of bound AD. For each concentration of the free and bound drug, 5 mice were used. PGA(15%)-HSA/MS-Q without AD was used for a control group and injected in equivalent weight amounts. Animals were then observed over a two-month period and fatalities were recorded for each group and tabulated.

CD-1 mice = experiment: Toxicity in CD-1 mice by i.p. injection; type: in vivo, CD-1 white female mice
Procedure: as §1

COc1cccc2c1C(=O)c1c(O)c3c(c(O)c1C2=O)C[C@@](O)(C(=O)CO)C[C@@H]3O[C@H]1C[C@H](N)[C@H](O)[C@H](C)O1 [AD, Adriamycin]
mortality at 1460 h [1]: > 80%
Survival from Time of Administration (CD-1 mice; AD 0.6 mg i.p. (free or bound), 7 days): 5/5
Survival from Time of Administration (CD-1 mice; AD 0.6 mg i.p. (free or bound), 14 days): 1/5
Survival from Time of Administration (CD-1 mice; AD 0.6 mg i.p. (free or bound), 21 days): 1/5
Survival from Time of Administration (CD-1 mice; AD 0.6 mg i.p. (free or bound), 28 days): 1/5
Survival from Time of Administration (CD-1 mice; AD 0.6 mg i.p. (free or bound), 35 days): 1/5
Survival from Time of Administration (CD-1 mice; AD 1.5 mg i.p. (free or bound), 7 days): 5/5
Survival from Time of Administration (CD-1 mice; AD 1.5 mg i.p. (free or bound), 14 days): 0/5
ulcer development at site of injection (CD-1 mice; i.p.): All animals treated with free AD developed these ulcers
